Test: xn = mol fraction of the nth substance listed
Conditions: Gas, Vibrating tube method

S [hydrogen sulfide] + C
Conditions | mass density [kg/m3]
252.89 K, 10727 kPa, x2 = 0.8197 | 209.51
252.89 K, 11063 kPa, x2 = 0.8197 | 217.25
252.89 K, 11429 kPa, x2 = 0.8197 | 224.63
252.9 K, 9948 kPa, x2 = 0.8197 | 181.75
252.9 K, 10181 kPa, x2 = 0.8197 | 191.68
252.9 K, 10440 kPa, x2 = 0.8197 | 200.58
252.9 K, 11825 kPa, x2 = 0.8197 | 231.88
252.9 K, 12251 kPa, x2 = 0.8197 | 239.02
252.91 K, 9089 kPa, x2 = 0.8197 | 146
252.91 K, 9296 kPa, x2 = 0.8197 | 153.9
252.91 K, 9508 kPa, x2 = 0.8197 | 162.6
252.91 K, 9727 kPa, x2 = 0.8197 | 172.12
252.91 K, 12717 kPa, x2 = 0.8197 | 246.1
252.92 K, 13223 kPa, x2 = 0.8197 | 253.09
252.92 K, 13782 kPa, x2 = 0.8197 | 260.02
252.94 K, 1010 kPa, x2 = 0.714 | 10.45
252.94 K, 14392 kPa, x2 = 0.8197 | 266.89
252.95 K, 1513 kPa, x2 = 0.714 | 16.11
252.95 K, 15070 kPa, x2 = 0.8197 | 273.89
252.96 K, 508 kPa, x2 = 0.714 | 5.18
252.97 K, 15829 kPa, x2 = 0.8197 | 280.91
252.98 K, 16314 kPa, x2 = 0.8197 | 285.18
252.99 K, 16702 kPa, x2 = 0.8197 | 288.37
253 K, 2008 kPa, x2 = 0.714 | 22.87
253 K, 21010 kPa, x2 = 0.8197 | 317.91
253 K, 21473 kPa, x2 = 0.8197 | 320.52
253 K, 21973 kPa, x2 = 0.8197 | 323.2
253 K, 22531 kPa, x2 = 0.8197 | 326.01
253 K, 22822 kPa, x2 = 0.8197 | 327.46
253 K, 23125 kPa, x2 = 0.8197 | 329.05
253.01 K, 17275 kPa, x2 = 0.8197 | 293.02
253.01 K, 20084 kPa, x2 = 0.8197 | 312.27
253.01 K, 20574 kPa, x2 = 0.8197 | 315.19
253.01 K, 23774 kPa, x2 = 0.8197 | 332.07
253.01 K, 24145 kPa, x2 = 0.8197 | 333.77
253.02 K, 2407 kPa, x2 = 0.714 | 28.16
253.02 K, 17701 kPa, x2 = 0.8197 | 296.11
253.02 K, 18537 kPa, x2 = 0.8197 | 302.29
253.02 K, 19009 kPa, x2 = 0.8197 | 305.49
253.02 K, 19564 kPa, x2 = 0.8197 | 309.06
253.02 K, 24553 kPa, x2 = 0.8197 | 335.64
253.02 K, 25031 kPa, x2 = 0.8197 | 337.77
253.03 K, 225 kPa, x2 = 0.8197 | 2.1
253.03 K, 18070 kPa, x2 = 0.8197 | 299
253.03 K, 25582 kPa, x2 = 0.8197 | 340.15
253.04 K, 26249 kPa, x2 = 0.8197 | 342.94
253.05 K, 472 kPa, x2 = 0.8197 | 4.43
253.05 K, 26980 kPa, x2 = 0.714 | 414.51
253.06 K, 26459 kPa, x2 = 0.714 | 412.74
253.06 K, 27510 kPa, x2 = 0.8197 | 348.27
253.07 K, 1105 kPa, x2 = 0.8197 | 10.58
253.07 K, 23585 kPa, x2 = 0.714 | 402.01
253.07 K, 26760 kPa, x2 = 0.8197 | 345.19
253.07 K, 27152 kPa, x2 = 0.8197 | 346.63
253.07 K, 27494 kPa, x2 = 0.714 | 416.29
253.07 K, 28062 kPa, x2 = 0.8197 | 350.41
253.08 K, 1496 kPa, x2 = 0.8197 | 14.53
253.08 K, 2006 kPa, x2 = 0.8197 | 20.39
253.08 K, 28543 kPa, x2 = 0.8197 | 352.25
253.08 K, 28966 kPa, x2 = 0.8197 | 353.85
253.08 K, 29496 kPa, x2 = 0.8197 | 355.79
253.08 K, 30039 kPa, x2 = 0.8197 | 357.73
253.09 K, 23043 kPa, x2 = 0.714 | 399.91
253.09 K, 24033 kPa, x2 = 0.714 | 403.73
253.09 K, 25963 kPa, x2 = 0.714 | 410.91
253.1 K, 21049 kPa, x2 = 0.714 | 391.7
253.1 K, 28034 kPa, x2 = 0.714 | 418.14
253.11 K, 20550 kPa, x2 = 0.714 | 389.58
253.11 K, 25528 kPa, x2 = 0.714 | 409.34
253.12 K, 4809 kPa, x2 = 0.8197 | 59.33
253.12 K, 19058 kPa, x2 = 0.714 | 382.7
253.12 K, 24495 kPa, x2 = 0.714 | 405.58
253.13 K, 5304 kPa, x2 = 0.8197 | 67.27
253.13 K, 17511 kPa, x2 = 0.714 | 374.95
253.13 K, 28568 kPa, x2 = 0.714 | 420
253.14 K, 16004 kPa, x2 = 0.714 | 366.38
253.14 K, 25004 kPa, x2 = 0.714 | 407.49
253.15 K, 19521 kPa, x2 = 0.714 | 384.91
253.15 K, 21583 kPa, x2 = 0.714 | 393.97
253.15 K, 22523 kPa, x2 = 0.714 | 397.9
253.16 K, 3517 kPa, x2 = 0.8197 | 38.95
253.16 K, 15038 kPa, x2 = 0.714 | 360.04
253.16 K, 18491 kPa, x2 = 0.714 | 380.05
253.16 K, 20070 kPa, x2 = 0.714 | 387.42
253.16 K, 29087 kPa, x2 = 0.714 | 421.82
253.16 K, 29450 kPa, x2 = 0.714 | 423.08
253.16 K, 30025 kPa, x2 = 0.714 | 425.02
253.17 K, 14005 kPa, x2 = 0.714 | 352.44
253.17 K, 22039 kPa, x2 = 0.714 | 395.89
253.18 K, 4507 kPa, x2 = 0.8197 | 52.31
253.18 K, 17054 kPa, x2 = 0.714 | 372.46
253.19 K, 4054 kPa, x2 = 0.8197 | 46.42
253.19 K, 18047 kPa, x2 = 0.714 | 377.75
253.21 K, 2947 kPa, x2 = 0.8197 | 32.5
253.21 K, 16513 kPa, x2 = 0.714 | 369.43
253.22 K, 15498 kPa, x2 = 0.714 | 363.19
253.23 K, 13535 kPa, x2 = 0.714 | 348.43
253.25 K, 2607 kPa, x2 = 0.8197 | 28.21
253.25 K, 14514 kPa, x2 = 0.714 | 356.43
253.27 K, 13000 kPa, x2 = 0.714 | 342.99
253.28 K, 188 kPa, x2 = 0.8685 | 1.76
253.29 K, 508 kPa, x2 = 0.8685 | 4.8
253.29 K, 24245 kPa, x2 = 0.8685 | 303.67
253.29 K, 24733 kPa, x2 = 0.8685 | 306.89
253.3 K, 1250 kPa, x2 = 0.8685 | 12.25
253.3 K, 25670 kPa, x2 = 0.8685 | 310.08
253.31 K, 1824 kPa, x2 = 0.8685 | 18.07
253.31 K, 29542 kPa, x2 = 0.8685 | 326.32
253.32 K, 5258 kPa, x2 = 0.8685 | 55.98
253.32 K, 6503 kPa, x2 = 0.8685 | 73.25
253.32 K, 27359 kPa, x2 = 0.8685 | 317.71
253.32 K, 27986 kPa, x2 = 0.8685 | 320.59
253.33 K, 2475 kPa, x2 = 0.8685 | 24.75
253.33 K, 5174 kPa, x2 = 0.8685 | 53.92
253.33 K, 5895 kPa, x2 = 0.8685 | 64.88
253.33 K, 28601 kPa, x2 = 0.8685 | 322.89
253.33 K, 29015 kPa, x2 = 0.8685 | 324.42
253.33 K, 30002 kPa, x2 = 0.8685 | 327.17
253.34 K, 4807 kPa, x2 = 0.8685 | 49.57
253.34 K, 6994 kPa, x2 = 0.8685 | 80.75
253.35 K, 3335 kPa, x2 = 0.8685 | 33.57
253.35 K, 7572 kPa, x2 = 0.8685 | 90
253.35 K, 7961 kPa, x2 = 0.8685 | 99.59
253.36 K, 4114 kPa, x2 = 0.8685 | 41.57
253.36 K, 7255 kPa, x2 = 0.8685 | 84.54
253.36 K, 8383 kPa, x2 = 0.8685 | 108.5
253.37 K, 8539 kPa, x2 = 0.8685 | 112.16
253.38 K, 4487 kPa, x2 = 0.8685 | 45.79
253.38 K, 8660 kPa, x2 = 0.8685 | 115.11
253.38 K, 8850 kPa, x2 = 0.8685 | 119.77
253.39 K, 9030 kPa, x2 = 0.8685 | 124.2

Source: the NIST ThermoML archive (doi:10.1016/j.fluid.2016.08.002)
